Drawing on patent US20190225650A1, “PEPTIDOMIMETIC MACROCYCLES AND USE THEREOF IN REGULATING HIF1ALPHA” (AILERON THERAPEUTICS, INC., priority 2013, published 2019), this text covers IC50 for twelve compounds.

A word on the IC50: it is the concentration that gives 50% inhibition.

Bridge positions count the residues as written; N and C are the ends. Square brackets hold non-standard residues; d marks the D form. Peptide text beside a SMILES is read from it. R8 = C=CCCCCCC[C@@](C)(N)C(=O)O; S5 = C=CCCC[C@](C)(N)C(=O)O; Nle = CCCC[C@H](N)C(=O)O

The target of the experiment is T1, flag-tagged HIF1α (AA 786-826) / His6-tagged p300 (AA 323-423) complex (Homo sapiens, UniProt Q09472).
T1 construct: His6-tagged p300 (AA 323-423); made in house; host or cells: E. coli (pETDuet vector)
Put plainly: HIF1α p300 displacement assay (TR FRET, +CHAPS). Format: binding. The following applies: read-out: IC50 (nM) (HIF1α_p300 Displacement + CHAPS). On the procedure: The ability of peptides to displace HIF1α c-terminal trans-activation domain from p300-CH was measured by a TR FRET assay. A complex of flag-tagged HIF1α (AA 786-826) and His6-tagged p300 (AA 323-423) was co-expressed using pETDuet vector (EMDMillipore, Bellrica Mass.) and purified from E. coli in the presence of 0.1 mM ZnSO4. The complex was diluted to 300 nM final in complete assay media and competitor peptides were added. The complete assay media contained 150 mM NaCl (Sigma +S5150 or equivalent), 20 mM HEPES pH 7.4 (Boston Bioproducts, Ashland, Mass.; #BB-2076), 7.5 mM CHAPS (Thermo #28300 or equivalent), and 1 mM DTT. Protein and peptide were incubated at room temperature for 1 hour before the addition of anti-Flag-K and anti-6×HIS-D2 (CisBio, Bedford Mass.) HTRF reconstitution buffer (50 mM Phosphate pH 7, 0.8 Potassium Flouride, BSA 0.2%)^1 to a final concentration of 0.5 μM and 4 nM respectively. The reaction continued for an additional two hours at room temperature. The reaction was read on a TECAN F500 plate reader with settings recommended by CisBio. The ratio of donor to acceptor fluorescence was calculated. The resulting data was analyzed with Graphpad Prism 5.0. IC50 values were calculated for both proteins using the One Site Fit-LogIC50 equation and presented in the column “IC50 (nM) (HIF1α_p300 Displacement+CHAPS)” of Table 6. ^1 Cisbio USA, Bedford, Mass.; 61HISDLB (lot 007A), 61FG2KLB (024A), HTRF Buffer (62RB3RDF)
A general note: Time-resolved FRET reads energy transfer from a long-lived donor to a nearby acceptor.
Take `CCCC[C@H](NC(=O)[C@H](CC(C)C)NC(=O)[C@@H](NC(=O)[C@H](C)NC(=O)[C@H](CCC(=O)O)NC(=O)[C@H](C)NC(=O)[C@@H](NC(=O)[C@H](Cc1ccccc1)NC(C)=O)[C@@H](C)CC)C(C)C)C(=O)N[C@@]1(C)CCCC=CCCC[C@@](C)(C(=O)N[C@@H](CCCC)C(=O)N[C@@H](C)C(=O)N[C@@H](CC(C)C)C(=O)N[C@@H](C)C(=O)N[C@@H](C)C(=O)N[C@H](C(N)=O)[C@@H](C)CC)NC(=O)[C@H]([C@@H](C)CC)NC(=O)[C@H](C(C)C)NC(=O)[C@H](CC(C)C)NC1=O` [SP-223] (Ac-FIAEAVL[Nle][S5]LVI[S5][Nle]ALAAI-NH2; staple 9-13): the IC50 is greater than 700 nM. To `CSCC[C@H](NC(=O)[C@H](CO)NC(=O)[C@]1(C)CCCC=CCCCCCC[C@@](C)(NC(=O)[C@H](CCC(=O)O)NC(=O)[C@@H](NC(=O)[C@H](CC(C)C)NC(C)=O)[C@@H](C)O)C(=O)N[C@@H](C(C)C)C(=O)N[C@@H](CC(C)C)C(=O)N[C@@H](CCSC)C(=O)N[C@@H](CO)C(=O)N[C@@H](CC(C)C)C(=O)N[C@@H](C(C)C)C(=O)N1)C(=O)N[C@@H](C)C(N)=O` [SP-180] (Ac-LTE[R8]VLMSLV[S5]SMA-NH2; staple 4-11) belongs greater than 700 nM; to `CCCC[C@@H]1NC(=O)[C@H](CC(C)C)NC(=O)[C@H](C(C)C)NC(=O)[C@@](C)(NC(=O)[C@H](CCC(=O)O)NC(=O)[C@H](CC(=O)O)NC(=O)[C@@H](NC(=O)[C@H](Cc2ccccc2)NC(C)=O)[C@@H](C)CC)CCCC=CCCCC2(CCCC=CCCC[C@](C)(C(=O)N[C@@H](CCCC)C(=O)N[C@@H](C)C(=O)N[C@@H](CC(C)C)C(N)=O)NC(=O)[C@H]([C@@H](C)CC)NC(=O)[C@H](C(C)C)NC(=O)[C@H](CC(C)C)NC2=O)NC1=O` (stereo partly drawn) [SP-204], greater than 700 nM; to `CCCC[C@H](NC(=O)[C@H](CC(C)C)NC(=O)[C@@H](NC(=O)[C@H](C)NC(=O)[C@H](CCC(=O)O)NC(=O)[C@H](C)NC(=O)[C@@H](NC(=O)[C@H](Cc1ccccc1)NC(C)=O)[C@@H](C)CC)C(C)C)C(=O)N[C@@]1(C)CCCC=CCCC[C@@](C)(C(=O)N[C@@H](CCCC)C(=O)N[C@@H](C)C(=O)N[C@@H](CC(C)C)C(=O)N[C@@H](CC(=O)O)C(=O)N[C@@H](C)C(=O)N[C@H](C(N)=O)[C@@H](C)CC)NC(=O)[C@H]([C@@H](C)CC)NC(=O)[C@H](C(C)C)NC(=O)[C@H](CC(C)C)NC1=O` [SP-222] (Ac-FIAEAVL[Nle][S5]LVI[S5][Nle]ALDAI-NH2; staple 9-13), 200 to 400 nM. For the compound `CC[C@H](C)[C@H](NC(=O)[C@H](Cc1ccccc1)NC(C)=O)C(=O)N[C@@H](CC(=O)O)C(=O)N[C@@H](CCC(=O)O)C(=O)N[C@]1(C)CCCCCCC=CCCC[C@@](C)(C(=O)N[C@@H](CCC(=O)O)C(=O)N[C@@H](CCSC)C(=O)NCC(=O)N[C@@H](CC(C)C)C(=O)N[C@@H](CC(=O)O)C(=O)N[C@@H](CCCNC(=N)N)C(N)=O)NC(=O)[C@H](C(C)C)NC(=O)[C@H](CC(C)C)NC(=O)[C@H](CO)NC(=O)[C@H](CCSC)NC(=O)[C@H](CC(C)C)NC(=O)[C@H](C(C)C)NC1=O` [SP-189] (Ac-FIDE[R8]VLMSLV[S5]EMGLDR-NH2; staple 5-12), the half-inhibitory concentration (IC50) is greater than 700 nM.

On to `CSCC[C@@H]1NC(=O)[C@H](CC(C)C)NC(=O)[C@H](C(C)C)NC(=O)[C@](C)(NC(=O)[C@H](CCC(=O)O)NC(=O)[C@@H](NC(=O)[C@H](CC(C)C)NC(C)=O)[C@@H](C)O)CCCCCCC=CCCC[C@@](C)(C(=O)N[C@@H](CO)C(=O)N[C@@H](C)C(=O)N[C@@H](C)C(N)=O)NC(=O)[C@H](C(C)C)NC(=O)[C@H](CC(C)C)NC(=O)[C@H](CO)NC1=O` [SP-181] (Ac-LTE[R8]VLMSLV[S5]SAA-NH2; staple 4-11), for which the IC50 is greater than 700 nM. For `CCCC[C@H](NC(=O)[C@]1(C)CCCC=CCCC[C@](C)(NC(=O)[C@H](CCCC)NC(=O)[C@H](CC(C)C)NC(=O)[C@@H](NC(=O)[C@H](C)NC(=O)[C@H](C)NC(=O)[C@H](C)NC(=O)[C@@H](NC(=O)[C@H](CC(N)=O)NC(=O)[C@@H](NC(=O)[C@]2(C)CCCC=CCCCCCC[C@@](C)(NC(=O)[C@H](C)NC(=O)CNC(=O)[C@H](CCC(N)=O)NC(=O)[C@H](CC(C)C)NC(=O)[C@H](CC(C)C)NC(C)=O)C(=O)N[C@@H](CC(C)C)C(=O)N[C@@H](CC(C)C)C(=O)N[C@@H](CCCNC(=N)N)C(=O)N[C@@H](C)C(=O)N[C@@H](CC(C)C)C(=O)N[C@@H](C)C(=O)N2)C(C)C)[C@@H](C)CC)C(C)C)C(=O)N[C@@H](CC(C)C)C(=O)N[C@@H](C(C)C)C(=O)N[C@@H]([C@@H](C)CC)C(=O)N1)C(N)=O` [SP-348] (Ac-LLQGA[R8]LLRALA[S5]VNIAAAVL[Nle][S5]LVI[S5][Nle]-NH2; staple 6-13, 23-27), the IC50 was greater than 700 nM. In the case of `CCCC[C@@H]1NC(=O)[C@](C)(NC(=O)[C@@H](NC(=O)[C@H](CCC(=O)O)NC(=O)[C@H](CCC(=O)O)NC(=O)[C@H](CC(=O)O)NC(=O)[C@@H](NC(=O)[C@H](CC(N)=O)NC(=O)[C@@H](NC(=O)[C@H](CCC(N)=O)NC(=O)[C@]2(C)CCCC=CCCC[C@](C)(NC(=O)[C@H](CC(C)C)NC(=O)[C@H](CCC(=O)O)NC(=O)[C@H](CCC(=O)O)NC(=O)CNC(=O)[C@H](CCC(N)=O)NC(=O)[C@H](CC(C)C)NC(=O)[C@H](CC(C)C)NC(C)=O)C(=O)N[C@@H](CCCNC(=N)N)C(=O)N[C@@H](C)C(=O)N[C@@H](CC(C)C)C(=O)N2)C(C)C)[C@@H](C)CC)C(C)C)CCCCCCC=CCCC[C@@](C)(C(=O)NCC(N)=O)NC(=O)[C@H](CCC(=O)O)NC(=O)[C@H]([C@@H](C)CC)NC(=O)[C@H](C(C)C)NC(=O)[C@H](CC(C)C)NC(=O)[C@H](CO)NC1=O` [SP-316] (Ac-LLQGEEL[S5]RAL[S5]QVNIDEEV[R8][Nle]SLVIE[S5]G-NH2; staple 8-12, 21-28), the IC50 was greater than 700 nM.

With `CCCC[C@H](NC(=O)[C@H](CCC(=O)O)NC(=O)[C@@H](NC(=O)[C@@H](NC(=O)[C@H](CC(N)=O)NC(=O)[C@]1(C)CCCC=CCCC[C@](C)(NC(=O)[C@H](C)NC(=O)[C@H](CC(=O)O)NC(=O)[C@@H](NC(=O)[C@H](Cc2ccccc2)NC(C)=O)[C@@H](C)CC)C(=O)N[C@@H](C(C)C)C(=O)N[C@@H](CC(C)C)C(=O)N[C@@H](CCCC)C(=O)N1)C(C)C)[C@@H](C)CC)C(=O)N[C@@H](C)C(=O)N[C@@H](CC(C)C)C(N)=O` [SP-150] (Ac-FIDA[S5]VL[Nle][S5]NVIE[Nle]AL-NH2; staple 5-9), the IC50 lay in the range of 200 to 400 nM.

As to `CC[C@H](C)[C@H](NC(=O)[C@H](Cc1ccccc1)NC(C)=O)C(=O)N[C@@H](CC(=O)O)C(=O)N[C@@H](CCC(=O)O)C(=O)N[C@]1(C)CCCCCCC=CCCC[C@@](C)(C(=O)N[C@@H](CCC(=O)O)C(=O)N[C@@H](CCSC)C(=O)NCC(=O)N[C@@H](CC(C)C)C(=O)N[C@@H](CC(=O)O)C(N)=O)NC(=O)[C@H](C(C)C)NC(=O)[C@H](CC(C)C)NC(=O)[C@H](CO)NC(=O)[C@H](CCSC)NC(=O)[C@H](CC(C)C)NC(=O)[C@H](C(C)C)NC1=O` [SP-188] (Ac-FIDE[R8]VLMSLV[S5]EMGLD-NH2; staple 5-12), the IC50 was greater than 700 nM.

On to `CCCC[C@H](NC(=O)[C@H](CCC(=O)O)NC(=O)[C@@H](NC(=O)[C@@H](NC(=O)[C@H](CC(C)C)NC(=O)[C@]1(C)CCCC=CCCC[C@](C)(NC(=O)[C@H](CCC(=O)O)NC(=O)[C@H](CC(=O)O)NC(=O)[C@@H](NC(=O)[C@H](Cc2ccccc2)NC(C)=O)[C@@H](C)CC)C(=O)N[C@@H](C(C)C)C(=O)N[C@@H](CC(C)C)C(=O)N[C@@H](CCCC)C(=O)N1)C(C)C)[C@@H](C)CC)C(=O)N[C@@H](C)C(=O)N[C@@H](CC(C)C)C(=O)N[C@@H](CCCCN)C(=O)N[C@@H](CCCCN)C(N)=O` [SP-133] (Ac-FIDE[S5]VL[Nle][S5]LVIE[Nle]ALKK-NH2; staple 5-9), for which the IC50 is greater than 700 nM. The result for `CC[C@H](C)[C@H](NC(=O)[C@H](Cc1ccccc1)NC(C)=O)C(=O)N[C@@H](CC(=O)O)C(=O)N[C@@H](CCC(=O)O)C(=O)N[C@@]1(C)CCCC=CCCC[C@@](C)(C(=O)N[C@@H](CC(C)C)C(=O)N[C@H](C(=O)N[C@H](C(=O)N[C@@H](CCC(=O)O)C(=O)N[C@@H](CCSC)C(=O)N[C@@H](C)C(N)=O)[C@@H](C)CC)C(C)C)NC(=O)[C@H](CCSC)NC(=O)[C@H](CC(C)C)NC(=O)[C@H](C(C)C)NC1=O` [SP-115] (Ac-FIDE[S5]VLM[S5]LVIEMA-NH2; staple 5-9) reads greater than 700 nM.
